In ChEMBL document CHEMBL1124907, “Synthesis and antiviral activity of some 3'-C-difluoromethyl and 3'-deoxy-3'-C-fluoromethyl nucleosides” (J Med Chem, 1990):
≈ marks a conversion by molar mass, not a printed value.

Experiments:
[1] = tested on: CV-1; assay: Inhibitory effect on Varicella zoster virus in CV-1 cells; format: functional, cell-based, Cercopithecidae; details: Chlorocebus aethiops
[2] = tested on: MT4; assay: Inhibitory effect on human immunodeficiency virus type-1 (HIV-1) in MT-4 cells; format: functional; details: read-out: ID50 (the source's name)

Row | Compound | IC50 [1] [µg/mL] | IC50 [2] [nM]
1 | O=c1[nH]c(=O)n(C2O[C@H](CO)[C@H](CF)[C@@H]2F)cc1I (some centres not stated) | 5.3 (≈ 13.7 µM) | 
2 | Cc1cn([C@H]2C[C@H](F)[C@@H](CO)O2)c(=O)[nH]c1=O [ALOVUDINE] |  | 50
